Here are results for 32 molecules from ChEMBL document CHEMBL3992482 (Medchemcomm, 2016).

The structures appear in SMILES notation. Calls of active or inactive are those of the source. The calls are words filed in the database; no cut-off is given here.

In test [1] the test system is HeLa. Kind of test: Cytotoxicity against human HeLa cells assessed as reduction in cell viability after 48 hrs by MTT assay. The class given is functional, cell-based.
For the next test, the system named is A549. Kind of test: Cytotoxicity against human A549 cells assessed as reduction in cell viability after 48 hrs by MTT assay. The format is functional, cell-based. To be noted: A549, 48 h. A general note: Tetrazolium dyes change colour on reduction, which living cells bring about.
A further test relates to MCF7. The test can be described thus: Cytotoxicity against human MCF7 cells assessed as reduction in cell viability after 48 hrs by MTT assay. The class given is functional, cell-based. To be noted: MCF7, 48 h.
For test [2], the system named is HeLa. The test can be described thus: Induction of apoptosis in human HeLa cells assessed as chromatin condensation after 24 hrs by acridine orange/ethidium bromide staining based fluorescence confocal microscopic method. The format is functional, cell-based.
Test [3] relates to HeLa. Kind of test: Induction of apoptosis in human HeLa cells assessed as nuclear fragmentation after 24 hrs by acridine orange/ethidium bromide staining based fluorescence confocal microscopic method. The format is functional, cell-based.
For test [4], the system named is HeLa. Kind of test: Induction of apoptosis in human HeLa cells assessed as crescent shaped cell masses at 5 to 10 uM after 24 hrs by […] staining based fluorescence microscopic method. The class given is functional.
For test [5], the system named is HeLa. Kind of test: Induction of apoptosis in human HeLa cells assessed as ring shaped cell masses at 5 to 10 uM after 24 hrs by […] staining based fluorescence microscopic method. The format is functional.
The test system of test [6] is HeLa. The test can be described thus: Induction of apoptosis in human HeLa cells after 24 hrs by Annexin-V FITC/propidium iodide staining based flow cytometry. The format is functional, cell-based. Background: In flow cytometry, cells or beads pass a laser one at a time.
Test [7] relates to HeLa. Kind of test: Induction of apoptosis in human HeLa cells assessed as necrotic cells at 5 uM after 24 hrs by Annexin-V FITC/propidium iodide staining based flow cytometry (reference value: 1.81%). The format is functional.
Test [8] concerns HeLa. The test can be described thus: Induction of apoptosis in human HeLa cells assessed as late apoptotic cells at 5 uM after 24 hrs by Annexin-V FITC/propidium iodide staining based flow cytometry (reference value: 0.29%). The class given is functional.
The subject of test [9] is HeLa. The test can be described thus: Induction of apoptosis in human HeLa cells assessed as early apoptotic cells at 5 uM after 24 hrs by Annexin-V FITC/propidium iodide staining based flow cytometry (reference value: 2.36%). The class given is functional.
Test [10] has as its system HeLa. Kind of test: Induction of apoptosis in human HeLa cells assessed as live cells at 5 uM after 24 hrs by Annexin-V FITC/propidium iodide staining based flow cytometry (reference value: 95.5%). The class given is functional.
The test system of test [11] is HeLa. Kind of test: Induction of apoptosis in human HeLa cells assessed as necrotic cells at 10 uM after 24 hrs by Annexin-V FITC/propidium iodide staining based flow cytometry (reference value: 1.81%). The class given is functional.
For test [12], the system named is HeLa. The test can be described thus: Induction of apoptosis in human HeLa cells assessed as late apoptotic cells at 10 uM after 24 hrs by Annexin-V FITC/propidium iodide staining based flow cytometry (reference value: 0.29%). The class given is functional.
For test [13], the system named is HeLa. Kind of test: Induction of apoptosis in human HeLa cells assessed as early apoptotic cells at 10 uM after 24 hrs by Annexin-V FITC/propidium iodide staining based flow cytometry (reference value: 2.36%). The format is functional.
Test [14] concerns HeLa. The test can be described thus: Induction of apoptosis in human HeLa cells assessed as live cells at 10 uM after 24 hrs by Annexin-V FITC/propidium iodide staining based flow cytometry (reference value: 95.5%). The format is functional.
Test [15] has as its system HeLa. The test can be described thus: Cell cycle arrest in human HeLa cells assessed as accumulation at G1 phase at 5 uM after 24 hrs by propidium iodide staining based flow cytometry (reference value: 66.42%). The format is functional.
Test [16] deals with HeLa. Kind of test: Cell cycle arrest in human HeLa cells assessed as accumulation at G1 phase at 10 uM after 24 hrs by propidium iodide staining based flow cytometry (reference value: 66.42%). The class given is functional.
Test [17] deals with HeLa. Kind of test: Cell cycle arrest in human HeLa cells assessed as accumulation at S phase at 5 uM after 24 hrs by propidium iodide staining based flow cytometry (reference value: 23.69%). The format is functional.
The subject of test [18] is HeLa. Kind of test: Cell cycle arrest in human HeLa cells assessed as accumulation at S phase at 10 uM after 24 hrs by propidium iodide staining based flow cytometry (reference value: 23.69%). The format is functional.
Test [19] concerns HeLa. Kind of test: Cell cycle arrest in human HeLa cells assessed as accumulation at G2/M phase at 5 uM after 24 hrs by propidium iodide staining based flow cytometry (reference value: 9.89%). The format is functional.
Test [20] relates to HeLa. Kind of test: Cell cycle arrest in human HeLa cells assessed as accumulation at G2/M phase at 10 uM after 24 hrs by propidium iodide staining based flow cytometry (reference value: 9.89%). The format is functional.
Test [21] relates to HeLa. Kind of test: Cell cycle arrest in human HeLa cells assessed as accumulation at S phase after 24 hrs by propidium iodide staining based flow cytometry. The class given is functional.

As a reminder, the IC50 is the concentration that inhibits the measured activity by half. For the molecule `CC(C)(C)c1nc(Nc2cccc3ccccc23)sc1Cc1ccc2c(c1)OCO2`, the IC50 in the test with HeLa [1] was 14.1 µM; with A549, 55.2 µM; with MCF7, 22.3 µM.
In the same order, the values of `CC(C)(C)c1nc(Nc2ccc(Cl)c(Cl)c2)sc1Cc1ccc2c(c1)OCO2` are 7.83 µM, 11.5 µM and 11.2 µM.
On to `CC(C)(C)c1nc(Nc2cc(C(F)(F)F)cc(C(F)(F)F)c2)sc1Cc1ccc2c(c1)OCO2`, for which the half-inhibitory concentration (IC50) in the test with HeLa [1] came out at 2.07 µM; in the test on A549, 3.52 µM; with MCF7, 9.03 µM. Also, the Activity entry in the test on HeLa [2] is “Dose-dependent effect”; in the test on HeLa [3], “Dose-dependent effect”; in the test on HeLa [6], “Dose-dependent effect”; in the test with HeLa [7] it was 0.69%; in the test on HeLa [8], 2.27%; with HeLa [9] it was 19.2%. Further, the Activity is 77.8% in the test on HeLa [10]; 0.23% in the test with HeLa [11]; 1.94% with HeLa [12]; 62.7% in the test with HeLa [13]; 35.1% in the test on HeLa [14]; 56.87% with HeLa [15]. Further, the Activity in the test with HeLa [16] was 46.14%; with HeLa [17] it was 27.1%; with HeLa [18], 35.93%; with HeLa [19], 16.03%; in the test on HeLa [20], 17.93%; with HeLa [21], “Dose-dependent effect”. Further, the outcome with HeLa [4] and in the test on HeLa [5] was Active.
Regarding `CC(C)(C)c1nc(Nc2ccccc2[N+](=O)[O-])sc1Cc1ccc2c(c1)OCO2`, the IC50 was 194 µM in the test with HeLa [1], 82.8 µM in the test with A549 and greater than 200 µM in the test with MCF7.
On the same counts, the results for `CC(C)(C)c1nc(Nc2ccc(C(F)(F)F)cc2)sc1Cc1ccc2c(c1)OCO2` are 10.4 µM, 9.22 µM and 3.54 µM.
In the case of `CC(C)(C)c1nc(Nc2ccccc2F)sc1Cc1ccc2c(c1)OCO2`, the IC50 with HeLa [1] was determined as 18.3 µM; in the test on A549 it was 7.57 µM; with MCF7, 4.49 µM.
`CC(C)(C)c1nc(Nc2ccc(Br)cc2)sc1Cc1ccc2c(c1)OCO2`: the figures for the half-inhibitory concentration (IC50) with HeLa [1], with A549 and in the test on MCF7 were 13.3 µM, 10.1 µM and 4.71 µM, respectively.
With `O=c1[nH]cc(F)c(=O)[nH]1` [FLUOROURACIL], the figures for the IC50 in the test with HeLa [1], in the test with A549 and in the test on MCF7 were 56.5 µM, 26 µM and 79.3 µM, respectively.
Turning to `CC(C)(C)c1nc(Nc2cccc(C(F)(F)F)c2)sc1Cc1ccc2c(c1)OCO2`, the half-maximal inhibitory concentration (IC50) was 13 µM in the test on HeLa [1], 15.8 µM with A549 and 3.32 µM in the test on MCF7.
With `COc1ccc(Nc2nc(C(C)(C)C)c(Cc3ccc4c(c3)OCO4)s2)cc1`, the IC50 with HeLa [1] was found to be 11.7 µM; with A549, 10.1 µM; with MCF7, 9.36 µM.
On to `CC(C)(C)c1nc(Nc2cccc(Cl)c2)sc1Cc1ccc2c(c1)OCO2`, for which the half-inhibitory concentration (IC50) in the test with HeLa [1] amounted to 8.27 µM; in the test on A549, 2.06 µM; with MCF7, 3 µM.
With `Cc1ccc2cccc(Nc3nc(C(C)(C)C)c(Cc4ccc5c(c4)OCO5)s3)c2n1`, the IC50 in the test on HeLa [1] is 65.1 µM; with A549 it was 55.5 µM; in the test with MCF7, greater than 200 µM.
With `CC(C)(C)c1nc(Nc2ccc([N+](=O)[O-])cc2)sc1Cc1ccc2c(c1)OCO2`, the IC50 is 4.15 µM with HeLa [1], 8.26 µM with A549 and 2.55 µM with MCF7.
Regarding `CC(C)(C)c1nc(Nc2ccccc2Cl)sc1Cc1ccc2c(c1)OCO2`, the IC50 was 18.9 µM in the test with HeLa [1], 6.84 µM with A549 and 8.99 µM in the test with MCF7.
On to `CC(C)(C)c1nc(Nc2ccc(Cl)cc2)sc1Cc1ccc2c(c1)OCO2`, for which the results for the concentration for half-maximal inhibition (IC50) in the test on HeLa [1], in the test on A549 and in the test with MCF7 were 11 µM, 9.19 µM and 3.48 µM, respectively.
On the same counts, the results for `CC(C)(C)c1nc(Nc2ccc(F)cc2)sc1Cc1ccc2c(c1)OCO2` are 25.3 µM, 5.81 µM and 15 µM.
In the same order, the values of `CC(C)(C)c1nc(Nc2ccc([N+](=O)[O-])cc2F)sc1Cc1ccc2c(c1)OCO2` are 19.3 µM, 67.2 µM and 33.3 µM.
On the same counts, the results for `CC(C)(C)c1nc(Nc2ccccn2)sc1Cc1ccc2c(c1)OCO2` are 4.79 µM, 5.13 µM and 4.71 µM.
On to `Cc1cccc(C)c1Nc1nc(C(C)(C)C)c(Cc2ccc3c(c2)OCO3)s1`, for which the IC50 in the test on HeLa [1] amounted to 83.5 µM; in the test on A549, 15.9 µM; with MCF7 it was 20.1 µM.
On the same counts, the results for `CC(C)(C)c1nc(Nc2c(Br)cc(OC(F)(F)F)cc2Br)sc1Cc1ccc2c(c1)OCO2` are 53.3 µM, 103 µM and 103 µM.
On the same counts, the results for `CC(C)(C)c1nc(Nc2ccccc2Br)sc1Cc1ccc2c(c1)OCO2` are 52 µM, 26.1 µM and 39.9 µM.
In the same order, the values of `Cc1cccc(Nc2nc(C(C)(C)C)c(Cc3ccc4c(c3)OCO4)s2)c1` are 18.8 µM, 12.7 µM and 4.91 µM.
Take `CC(C)(C)c1nc(Nc2ccc([N+](=O)[O-])cc2Cl)sc1Cc1ccc2c(c1)OCO2`: the IC50 in the test with HeLa [1] stood at 51.7 µM; with A549 it was 80.9 µM; in the test on MCF7, 76.5 µM.
For `CC(C)(C)c1nc(Nc2cccc(Cl)c2Cl)sc1Cc1ccc2c(c1)OCO2`, the IC50 with HeLa [1] was found to be 34.6 µM; in the test with A549, 14.2 µM; with MCF7, 19.4 µM.
With `Cc1ccccc1Nc1nc(C(C)(C)C)c(Cc2ccc3c(c2)OCO3)s1`, the half-inhibitory concentration (IC50) in the test on HeLa [1] was determined as 24.8 µM; with A549, 18.7 µM; with MCF7, 19.1 µM.
In the case of `CC(=O)O[C@H]1C(=O)[C@@]2(C)[C@H]([C@H](OC(=O)c3ccccc3)[C@]3(O)C[C@H](OC(=O)[C@H](O)[C@@H](NC(=O)c4ccccc4)c4ccccc4)C(C)=C1C3(C)C)[C@]1(OC(C)=O)CO[C@@H]1C[C@@H]2O` [PACLITAXEL], the IC50 in the test on HeLa [1] turned out to be 19.3 µM; with A549, 21 µM; in the test with MCF7, 14 µM.
As for `CC(C)(C)c1nc(Nc2cc(Cl)cc(Cl)c2)sc1Cc1ccc2c(c1)OCO2`, the IC50 in the test on HeLa [1] amounted to 5.8 µM; in the test with A549, 17 µM; in the test with MCF7 it was 17.7 µM.
For the molecule `Cc1ccc(Nc2nc(C(C)(C)C)c(Cc3ccc4c(c3)OCO4)s2)c(C)c1`, the IC50 with HeLa [1] came to 18.9 µM; in the test on A549, 11.3 µM; in the test with MCF7 it was 18.7 µM.
`CC(C)(C)c1nc(Nc2ccccc2)sc1Cc1ccc2c(c1)OCO2`: the half-maximal inhibitory concentration (IC50) was 12 µM with HeLa [1], 20.4 µM in the test on A549 and 11.6 µM with MCF7.
In the same order, the values of `CCOC(=O)c1ccc(Nc2nc(C(C)(C)C)c(Cc3ccc4c(c3)OCO4)s2)cc1` are 47.5 µM, 8.51 µM and 5.95 µM.
In the same order, the values of `Cc1ccc(Nc2nc(C(C)(C)C)c(Cc3ccc4c(c3)OCO4)s2)cc1C` are 20.7 µM, 12.2 µM and 20.4 µM.
Regarding `CC(C)(C)c1nc(Nc2cccc(Br)c2)sc1Cc1ccc2c(c1)OCO2`, the IC50 with HeLa [1] amounted to 6.43 µM; in the test with A549, 5 µM; in the test with MCF7 it was 4.66 µM.
